Measured values from patent US20210047278A1, “E3 UBIQUITIN LIGASE AGONISTS, PHARMACEUTICAL COMPOSITIONS INCLUDING THE E3 UBIQUITIN LIGASE AGONISTS, RELATED METHODS OF USE” (FRED HUTCHINSON CANCER RESEARCH CENTER, priority 2018, published 2021).
Like-named read-outs stand apart in the source and are kept apart here.

How the values were obtained:
Type in all cases: binding
[1] = target: T1, FBW7^ARG+pCycE (Homo sapiens, UniProt Q969H0, R505L); test: FBW7^ARG-cyclin E agonist ALPHAscreen (primary PRUN, confirmation CRUN1, dose-response DRUN); settings: for EC50 / Emax: DRUN dose-response; for Emax: relative to WT-FBW7+pCycE, read-out: FBW7 ACT Averaged Max % Response
T1 construct: GST (TEV site and flexible linker) (N, cleaved yes); made in house; host or cells: SF9 insect cells (baculovirus)
T1 sequence (Q969H0 64-707 R505L): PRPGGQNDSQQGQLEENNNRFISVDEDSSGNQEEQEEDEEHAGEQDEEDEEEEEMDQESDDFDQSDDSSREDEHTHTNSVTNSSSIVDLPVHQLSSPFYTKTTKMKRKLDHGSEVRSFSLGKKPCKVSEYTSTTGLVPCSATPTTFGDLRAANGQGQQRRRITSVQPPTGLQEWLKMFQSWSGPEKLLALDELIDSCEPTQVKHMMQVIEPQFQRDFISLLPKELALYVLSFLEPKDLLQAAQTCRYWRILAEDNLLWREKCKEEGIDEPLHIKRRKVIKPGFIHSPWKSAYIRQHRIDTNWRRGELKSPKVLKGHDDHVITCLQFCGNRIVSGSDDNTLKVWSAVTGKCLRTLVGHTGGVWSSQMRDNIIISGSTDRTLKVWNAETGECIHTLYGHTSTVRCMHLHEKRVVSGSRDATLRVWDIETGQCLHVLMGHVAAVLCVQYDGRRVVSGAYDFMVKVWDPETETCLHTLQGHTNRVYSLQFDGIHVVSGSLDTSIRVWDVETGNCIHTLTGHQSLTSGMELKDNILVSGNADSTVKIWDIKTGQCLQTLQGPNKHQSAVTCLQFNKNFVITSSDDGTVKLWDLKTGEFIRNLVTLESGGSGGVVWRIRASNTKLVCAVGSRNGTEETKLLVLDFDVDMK
T1 sequence (P63208 2-163 partner): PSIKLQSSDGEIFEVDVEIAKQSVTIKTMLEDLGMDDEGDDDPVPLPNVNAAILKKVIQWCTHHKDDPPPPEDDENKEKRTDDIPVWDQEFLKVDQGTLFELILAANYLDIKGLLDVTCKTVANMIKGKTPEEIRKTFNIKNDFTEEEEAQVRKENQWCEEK
Text: FBW7^ARG refers to a class of loss-of-function mutations of the of FBW7 ubiquitin ligase that target a key phosphate-binding arginine residue in the FBW7 substrate-binding domain. These mutations are commonly found in human cancers and promote tumorigenesis by impairing the interactions between FBW7 and its substrates, such as cyclin E and Myc. Described herein is a high throughput screen (HTS) to identify agonists, such as small molecules, that augment FBW7^ARG-substrate binding. In an embodiment, the HTS is based on the Amplified Luminescent Proximity Homogenous Assay (ALPHAscreen) because it detects protein-protein interactions with a large dynamic range. ALPHAscreen is a bead-based proximity assay wherein donor beads contain a photosensitizer, phthalocyanine, and acceptor beads contain thioxene, anthracene and rubrenein in sufficient quantities to generate a chemiluminescence/fluorescence reaction (FIG. 4A). Upon excitation with excitation illumination, such as light having a wavelength of 680 nm, of the donor beads, phthalocyanine converts ambient oxygen to singlet oxygen, which can diffuse approximately 200 nm within its 4-microsecond half-life. If an acceptor bead is in close proximity to an excited donor bead, singlet oxygen transfers its energy to the acceptor, resulting in emitted light at a broad bandwidth of −520-620 nm. The HTS-compatible FBW7/cyclin E ALPHAscreen assay described herein uses streptavidin coupled donor beads and Ni-chelate acceptor beads. In this assay, biotinylated cyclin E phosphopeptide and the His-tagged FBW7 mutant protein have high affinity for the donor and acceptor beads, respectively (FIG. 4B). A small molecule that is able to bridge the binding sites of the peptide and the mutant protein (or induce a conformational change that increases affinity of the protein for the peptide) will bring the donor and acceptor beads in close proximity to each other, resulting in an ALPHA signal. As designed, this assay format is a very sensitive, non-radioactive, homogenous “mix-and-read” format that is HT compatible in 384 and 1536 well formats.
In the 384-well screening assay, 10 uL of acceptor beads with 25 nM of the FBW7^ARG (RLFBW7) are dispensed to test wells; acceptor beads with 25 nM of the wt-FBW7 protein (WTFBW7) are dispensed to control wells. Test compounds are then added by pintool transfer and the mixture is incubated for 30 minutes. An additional 10 uL of donor beads with 25 nM cyclin E phosphopeptide is then added to all wells and the plate is incubated for 4 hours before the ALPHA signal is measured.
In preparation for large-scale screening, the assay was miniaturized to a 1536-well format. The miniaturized screen performed outstandingly in all respects. The screen was enhanced with respect to several parameters and assayed its performance using mutant FBW7 and wt-FBW7, as well as non-specific assay agonists. […] For example, the following Z′-scores/FBW7 concentrations were obtained: 6.25 nM/Z′=0.62, 12.5 nm/Z′=0.85, 25.0 nM/Z′=0.84.
1. Add 2.5 uL of RLFBW7/cycE˜P/Ni beads: Final [25 nM/25 nM/10 ug/ml].
2. Add 2.5 uL of WTFBW7/cycE˜P/Ni beads: Final [25 nM/25 nM/10 ug/ml].
4. Add 2.5 uL of SA beads to all wells Final [10 ug/ml],
5. Add 30 nL of compounds,
6. Read ALPHAscreen on Envision
The large-scale FBW7 agonist ALPHAscreen was completed using FBW7^ARG and a phosphorylated cyclin E (pCycE) degron peptide. Wt-FBW7+pCycE-peptide was the “high control”, and Wt-FBW7+unphosph. CycE peptide was the “low control”. The screen was performed on the 645,000-compound Scripps Diversity Library using 1536-well format and drug concentrations of 26.1 μM. An algorithm aided hit identification based on the average percent activation for all compounds and their standard deviation.
A confirmation assay of all 853 compounds in triplicate using a single concentration (26.1 μM). […]

[2] = target: T2, FBW7^ARG (RLFBW7) alone (Homo sapiens, UniProt Q969H0, R505L); test: Counterscreen 1 ALPHAscreen with FBW7^ARG alone (CSRUN1/DCSRUN1); settings: dose-response counterscreen; for Emax: read-out: RLFBW7 ACT DCSRUN1 Averaged Max % Response
T2 construct: GST (TEV site and flexible linker) (N, cleaved yes); made in house; host or cells: SF9 insect cells (baculovirus)
T2 sequence (Q969H0 64-707 R505L): as the sequence (Q969H0 64-707 R505L) above
T2 sequence (P63208 2-163 partner): as the sequence (P63208 2-163 partner) above
Experimental: (§1) Studies in 384-well format were performed using the ENVISION system. Reagent concentrations (see FIG. 6A), order of addition, pH (see FIG. 6B), and reducing agent were altered with the goal of enhancing the dynamic range between wt-FBW7 (the positive control) and FBW7^ARG (FIG. 6 and not shown). Wt-FBW7 produced a signal 100× greater with phosphorylated cyclin E degron peptide compared with unphosphorylated, which represents the assay's maximum range (FIG. 6C). […] This assay thus detects the residual affinity of the FBW7^ARG-substrate interaction, which, as predicted, is stronger than wt-FBW7 protein with unphosphorylated cyclin E peptide. Concurrent with this primary assay, counter ALPHAscreens were developed which omitted either FBW7 or peptide (to eliminate hits that are general ALPHAscreen agonists), or used an irrelevant phosphopeptide (to eliminate compounds that simply augment binding to phosphopeptides). […]
(§2) The 77 hits were subjected to a dose-response assay in which each compound was tested in triplicate in a 10 point 3-fold dilutional series, to a maximum concentration of approximately 87 μM. Three screens were performed, using FBW7^ARG+pCycE (DRUN), FBW7^ARG (DCSRUN1), or pCycE alone (DCSRUN2). See TABLES 2, 3, and 4, respectively, and FIG. 10A. All of the assays performed extremely well, and threshold of 10% activation (relative to WT-FBW7+pCycE) was set as positive. […] Many hits fell into shared structure cluster ID groups, reinforcing the idea that they function as specific agonists (see below and TABLE 5).

[3] = tested on: pCycE alone; test: Counterscreen 2 ALPHAscreen with cyclin E phosphopeptide alone (CSRUN2/DCSRUN2); settings: for CyCEP ACT DCSRUN2 Averaged Max % Response: activation relative to WT-FBW7+pCycE, averaged maximum; for EC50: dose-response, triplicate, 10 point 3-fold dilutional series, read-out: CyCEP ACT DCSRUN2 Final EC50
Experimental: as §1, §2

[4] = raw curve fit, read-out: FBW7 ACT EC50 Curve Fit Raw, Molar
[5] = triplicate, 10 point 3-fold dilution, max approx. 87 μM, read-out: FBW7 ACT Final EC50, Molar
[6] = confirmation assay, triplicate, single concentration 26.1 μM, read-out: FBW7 ACT CRUN1 Avg % Response and Stdev
[7] = primary screen, 1536-well, 26.1 μM, FBW7^ARG + pCycE degron peptide, high control wt-FBW7+pCycE, read-out: FBW7 ACT PRUN % Response
[8] = raw curve fit, read-out: RLFBW7 ACT DCSRUN1 EC50 Curve Fit Raw
[9] = read-out: RLFBW7 ACT DCSRUN1 Final EC50

| EC50 [1, 4] [µM] | Emax [1] [%] | EC50 [1, 5] [µM] | activation at 26.1 µM [1, 6] [%] | activation at 26.1 µM [1, 7] [%] | EC50 [2, 8] [µM] | Emax [2] [%] | EC50 [2, 9] [µM] | RLFBW7 ACT DCSRUN1 Hill Slope [2] | SMILES | CyCEP ACT DCSRUN2 Averaged Max % Response [3] [%] | EC50 [3] [µM] |
| --- | --- | --- | --- | --- | --- | --- | --- | --- | --- | --- | --- |
| 4 | 8.53 | > 65.3 | 4.91 ± 0.39 | 5.73 | 6.6 | 29.7 | > 65.3 |  | Cc1ccc(-c2cccc3cnc(Nc4ccc(-n5cnc(-c6ccccn6)n5)cc4)nc23)cn1.O=C(O)C(F)(F)F [SR-00000008492-1] | 0.22 | > 65.3 |
| 15.3 | 18.4 | > 64.6 | 2.46 ± 0.31 | 1.85 | 33.3 | 0.39 | > 64.6 |  | CC(=O)NCC(c1cccs1)S(=O)(=O)c1ccc(C)cc1 (centres unmarked) [SR-01000023077-1] | 0.18 | > 64.6 |
| 7.6 | 14.7 | > 66.4 | 2.18 ± 0.61 | 3.19 | 0.0177 | 0.24 | > 66.4 |  | CCS(=O)(=O)NCC(c1cccs1)S(=O)(=O)c1ccc(C)cc1 (centres unmarked) [SR-01000023127-1] | 0.21 | > 66.4 |
| 24.5 | 21.9 | > 70.9 | 3.34 ± 0.7 | 2.67 | 19.4 | 12 | > 70.9 |  | CCN(CC)c1ccc2cc(-c3ccccn3)c(=O)oc2c1 [SR-01000033354-1] | 0.43 | > 70.9 |
| 15.5 | 26.6 | > 75.4 | 10.7 ± 0.12 | 3.41 | 42.4 | 101 | 39.8 | 3.57 | C/C(=N\Nc1cccc(C(F)(F)F)c1)C1CC1 [SR-01000041073-1] | 0.22 | > 75.4 |
| 1.4 | 6.03 | > 65.3 | 2.27 ± 0.05 | 5.59 | 0.823 | 1.17 | > 65.3 |  | CC(C)(C)OC(=O)N/N=C\c1cccs1 [SR-01000110457-1] | 0.10 | > 65.3 |
|  | 10.3 |  | 2.53 ± 0.13 | 2.18 |  | 0.7 |  |  | CCOC(=O)c1sc2ncn(CC(=O)NCCC3=CCCCC3)c(=O)c2c1C [SR-01000119175-1] | 0.13 | > 65.3 |
| 0.255 | 6.18 | > 65.3 | 2.32 ± 0.39 | 3.06 | 0.255 | -0.0757 | > 65.3 |  | O=C(NCCCN1CCc2ccccc2C1)Nc1ccc(Br)cc1 [SR-01000123578-1] | 0.28 | > 65.3 |
| 13.4 | 15.2 | > 65.3 | 4.47 ± 0.6 | 4.02 | 0.0182 | 0.23 | > 65.3 |  | CC(=O)Nc1ccc(NC(=O)Cn2cnc3c(cnn3C(C)(C)C)c2=O)cc1 [SR-01000137195-1] | 0.27 | > 65.3 |
| 21.5 | 8.52 | > 65.3 | 2.95 ± 0.31 | 3.93 | 4.1 | 1.56 | > 65.3 |  | CCN(Cc1ccccc1)C(=O)c1cc2c(=O)n3cccc(C)c3nc2n1C [SR-01000140943-1] | 0.79 | > 65.3 |
| 2.3 | 6.52 | > 65.3 | 1.88 ± 0.38 | 2.02 | 0.0108 | 1.75 | > 65.3 |  | Cc1nc(C(C)NC(=O)c2cc(COc3ccc(F)cc3F)on2)cs1 (centres unmarked) [SR-01000168282-1] | 0.37 | > 65.3 |
| 23 | 7.67 | > 60.9 | 6.36 ± 0.25 | 2.06 | 25.2 | 0.88 | > 60.9 |  | CC1=C(C(=O)OC(C)C)C(c2ccncc2)C2=C(CC(c3ccccc3)CC2=O)N1 (centres unmarked) [SR-01000217822-2] | 0.03 | > 60.9 |
| 17.4 | 16.3 | > 65.3 | 3.1 ± 0.38 | 2.07 | 14.2 | 8.96 | > 65.3 |  | CCN1C(=O)c2cccc3c(N4CCCC4)ccc(c23)C1=O [SR-01000221568-1] | 0.35 | > 65.3 |
| 26.7 | 33.6 | > 65.3 | 9.26 ± 0.67 | 11.9 | 0.0369 | 1.05 | > 65.3 |  | COc1cccc(C=O)c1OC(=O)c1cccc(Cl)c1 [SR-01000242625-1] | 0.61 | > 65.3 |

| SMILES | EC50 [1, 4] [µM] | Emax [1] [%] | EC50 [1, 5] [µM] | activation at 26.1 µM [1, 6] [%] | activation at 26.1 µM [1, 7] [%] | EC50 [2, 8] [µM] | Emax [2] [%] | EC50 [2, 9] [µM] | RLFBW7 ACT DCSRUN1 Hill Slope [2] | CyCEP ACT DCSRUN2 Averaged Max % Response [3] [%] | EC50 [3] [µM] |
| --- | --- | --- | --- | --- | --- | --- | --- | --- | --- | --- | --- |
| Cc1cccc(N2CCN(C(=O)CCc3nc(C4=CCN(C)CC4)no3)CC2C)c1 (centres unmarked) [SR-01000140019-1] |  | 10.2 |  | 3.38 ± 0.3 | 4.08 |  | -0.213 |  |  | 0.31 | > 65.3 |
